In ChEMBL document CHEMBL1155206, “Synthesis and in vitro evaluation of 2,4-diamino-1,3,5-triazine derivatives as neuronal voltage-gated sodium channel blockers” (Bioorg Med Chem Lett, 2009) one finds IC50 data, which are given here for 35 compounds.

A short description of test [1]: Displacement of [3H]BTX-B from neurotoxin site 2 of voltage gated sodium channel in rat cerebral cortex synaptoneurosomes after 30 mins by scintillation counting. It counts as tissue-based.
Another test deals with T1, Dihydrofolate reductase (Bos taurus, UniProt P00376).
T1 sequence (P00376 whole entry): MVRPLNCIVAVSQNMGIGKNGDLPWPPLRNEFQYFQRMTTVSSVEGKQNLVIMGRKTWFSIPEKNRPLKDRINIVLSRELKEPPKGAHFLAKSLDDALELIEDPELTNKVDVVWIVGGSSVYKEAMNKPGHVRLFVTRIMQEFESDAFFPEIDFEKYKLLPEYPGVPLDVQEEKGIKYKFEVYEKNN
The experiment in a line: Inhibition of bovine liver DHFR assessed as NADPH consumption during conversion of dihydrofolic acid to tetrahydrofolic acid.

In the case of `Cc1ccccc1N1C(N)=NC(N)=NC12CCCCC2`, the IC50 in test [1] was 9.1 µM; at Dihydrofolate reductase, over 100 µM.

As for `CC1(C)N=C(N)N=C(N)N1Cc1ccc(Cl)c(Cl)c1`, the IC50 in test [1] turned out to be 19 µM; at Dihydrofolate reductase, 12.8 µM.

On to `COc1ccccc1NC1=NC(N)=NC(C)(C)N1`, for which the IC50 was 343 µM in test [1] and over 100 µM on Dihydrofolate reductase.

For the compound `COc1cccc(N2C(N)=NC(N)=NC23CCCCC3)c1`, the concentration for half-maximal inhibition (IC50) in test [1] is 5.1 µM; at Dihydrofolate reductase, over 100 µM.

In the case of `CC1(C)N=C(N)N=C(Nc2ccc(Cl)cc2)N1`, the IC50 in test [1] is 24.7 µM; at Dihydrofolate reductase, over 100 µM.

Consider `COc1ccc(NC2=NC(N)=NC(C)(C)N2)cc1`, for which the concentration for half-maximal inhibition (IC50) in test [1] is 207 µM; on Dihydrofolate reductase, over 100 µM.

Consider `Cc1cccc(N2C(N)=NC(N)=NC23CCCCC3)c1`, for which the half-maximal inhibitory concentration (IC50) in test [1] is 4.7 µM; at Dihydrofolate reductase it was over 100 µM.

As for `NC1=NC2(CCCCC2)N(c2cccc(Cl)c2)C(N)=N1`, the values for the half-inhibitory concentration (IC50) (in test [1]; at Dihydrofolate reductase) were 4 µM and over 100 µM, respectively.

`CC1(C)N=C(N)N=C(Nc2ccccc2)N1`: the half-inhibitory concentration (IC50) is 259 µM in test [1] and over 100 µM at Dihydrofolate reductase.

In the case of `O=C1NC(=O)C(c2ccccc2)(c2ccccc2)N1` [PHENYTOIN], the values for the IC50 (in test [1]; at Dihydrofolate reductase) were 126 µM and over 100 µM, respectively.

As to `CC1(C)N=C(N)N=C(N)N1Cc1ccc(Cl)cc1`, the values for the concentration for half-maximal inhibition (IC50) (in test [1]; at Dihydrofolate reductase) were 35.3 µM and 29.9 µM, respectively.

Take `CC1(C)N=C(N)N=C(Nc2ccccc2Cl)N1`: the half-inhibitory concentration (IC50) is 85.5 µM in test [1] and over 100 µM at Dihydrofolate reductase.

As to `Cc1nc(N)nc(Nc2ccc(Cl)c(Cl)c2)n1`, the half-inhibitory concentration (IC50) was 274 µM in test [1] and over 100 µM at Dihydrofolate reductase.

In the case of `Cc1ccccc1NC1=NC(N)=NC(C)(C)N1`, the values for the 50% inhibitory concentration (IC50) (in test [1]; at Dihydrofolate reductase) were 582 µM and over 100 µM, respectively.

On to `NC1=NC2(CCCCC2)N(c2ccccc2)C(N)=N1`, for which the IC50 in test [1] was 14.7 µM; at Dihydrofolate reductase it was over 100 µM.

As to `CC1(C)N=C(N)N=C(Nc2cccc(Cl)c2)N1`, the figures for the IC50 (in test [1]; on Dihydrofolate reductase) were 16.5 µM and over 100 µM, respectively.

As for `CC1(C)N=C(N)N=C(Nc2ccccc2Br)N1`, the IC50 in test [1] is 57.5 µM; at Dihydrofolate reductase, over 100 µM.

With `Cc1cccc(NC2=NC(N)=NC(C)(C)N2)c1`, the half-inhibitory concentration (IC50) in test [1] was 186 µM; on Dihydrofolate reductase, over 100 µM.

As to `Cc1nc(N)nc(Nc2cccc(Br)c2)n1`, the IC50 in test [1] is 198 µM; at Dihydrofolate reductase, over 100 µM.

`Nc1nc(CCl)nc(Nc2cccc(Br)c2)n1`: the IC50 in test [1] was 172 µM; at Dihydrofolate reductase, over 100 µM.

For the compound `Cc1ccc(N2C(N)=NC(N)=NC23CCCCC3)cc1`, the IC50 was 4.2 µM in test [1] and over 100 µM on Dihydrofolate reductase.

Regarding `Cc1nc(N)nc(Nc2cccc(Cl)c2)n1`, the IC50 was 246 µM in test [1] and over 100 µM at Dihydrofolate reductase.

For `CC1(C)N=C(N)N=C(Nc2cccc(Br)c2)N1`, the IC50 is 12.6 µM in test [1] and over 100 µM on Dihydrofolate reductase.

For the compound `CC1(C)N=C(N)N=C(N)N1Cc1ccccc1`, the half-inhibitory concentration (IC50) is 53.2 µM in test [1] and 19.5 µM at Dihydrofolate reductase.

Regarding `NC1=NC2(CCCCC2)N(c2ccc(Cl)cc2)C(N)=N1`, the IC50 in test [1] was 4.4 µM; on Dihydrofolate reductase it was over 100 µM.

On to `Cc1ccc(NC2=NC(N)=NC(C)(C)N2)cc1`, for which the IC50 in test [1] was 71.5 µM; on Dihydrofolate reductase, over 100 µM.

Consider `COc1ccc(N2C(N)=NC(N)=NC23CCCCC3)cc1`, for which the IC50 in test [1] was 7.8 µM; on Dihydrofolate reductase it was over 100 µM.

On to `Cc1ccc(CN2C(N)=NC(N)=NC2(C)C)cc1`, for which the half-inhibitory concentration (IC50) in test [1] was 32.2 µM; on Dihydrofolate reductase, 24.6 µM.

Take `COc1cccc(NC2=NC(N)=NC(C)(C)N2)c1`: the 50% inhibitory concentration (IC50) is 76.2 µM in test [1] and over 100 µM on Dihydrofolate reductase.

For `CC1(C)N=C(N)NC(Nc2ccc(Br)cc2)=N1`, the half-inhibitory concentration (IC50) in test [1] is 18.4 µM; on Dihydrofolate reductase, over 100 µM.

Turning to `COc1ccc(CN2C(N)=NC(N)=NC2(C)C)cc1`, the IC50 in test [1] was found to be 59.8 µM; at Dihydrofolate reductase it was 58.8 µM.

On to `Nc1nc(CCl)nc(Nc2cccc([N+](=O)[O-])c2)n1`, for which the IC50 was 190 µM in test [1] and over 100 µM at Dihydrofolate reductase.

Turning to `NC1=NC2(CCCCC2)N(c2ccccc2Cl)C(N)=N1`, the 50% inhibitory concentration (IC50) in test [1] was 13 µM; on Dihydrofolate reductase, over 100 µM.

As to `COc1ccccc1N1C(N)=NC(N)=NC12CCCCC2`, the half-inhibitory concentration (IC50) in test [1] was 12.3 µM; on Dihydrofolate reductase, over 100 µM.

Take `Nc1nc(CCl)nc(Nc2ccc(Cl)c(Cl)c2)n1`: the concentration for half-maximal inhibition (IC50) in test [1] is 168 µM; at Dihydrofolate reductase it was over 100 µM.

The term IC50 denotes the concentration that gives 50% inhibition.
